From patent publication US20250002843A1, “DERIVATION OF NAÏVE BOVINE EMBRYONIC STEM CELLS” (The Semex Alliance, priority 2021, published 2025)

System: ZP-free bovine embryo
Experiment: Bovine embryo attachment and outgrowth derivation (attachment, TE growth, ICM growth) in culture media
Format: cell-based
Conditions: for effect on derivation efficiency on substitution in t2iLGöY media: bovine IL-6 10 ng/ml for human LIF, CGP77675 2 uM for PD0325901
Description: The protocol for coating was as follows: • 1. 4 drops of 50 μL of coating solution: 0.1% gelatin or different concentrations of EHS-ECM, provided as a 100× concentrated solution, were applied onto Nunc surface 35 mm^2 cell culture dish (see FIG. 1). • 2. Coated substrates were incubated in a humidified 5% CO2 incubator at 38.5° C. for 1 hour. • 3. After incubation, excess coating solution was removed, 50 uL of cell culture media was applied to the coated area, covered with 4 mL of mineral oil, and 50 ul of additional media was added into each drop. • 4. Media was allowed to equilibrate in a humidified 5% O2, 5% CO2 incubator at 38.5° C. for 2 hours. • 5. After ZP removal and adaptation of embryos, 1 embryo was placed into 1 micro culture drop to start outgrowth derivation. • 6. First attachment rate was determined at 48 hours of outgrowth culture and first media change was done right after first attachment determination. • 7. Attachment rate and outgrowth rate were evaluated every day and media were changed right after daily evaluation.
The protocol for generating LbL ECM coated substrate was as follows: • 1. 40 ul of 0.1% Gelatin type A (diluted with DMEM/F12 basal medium) was applied to the surface of a Nunc 35 mm^2 cell culture dish to make small drops. • 2. The dish was incubated in a humidified 5% CO2 incubator at 38.5° C. for 1 hour. • 3. After incubation, the gelatin solution was removed and 50 ul of DPBS with Ca^2+ and Mg^2+ was added to wash excess gelatin from drops, followed by removal using aspiration. The washing step was repeated 2 times more. • 4. 50 ul of 1×EHS-ECM was applied to the gelatin coated area and incubated in a humidified 5% CO2 incubator at 38.5° C. for 1 hour. • 5. After incubation, EHS-ECM solution was removed, and 50 ul of media was applied; drops were covered with 4 ml of mineral oil, and 50 ul of additional media was added into each drop. • 6. The media was allowed to equilibrate in 5% CO2 incubator for 2 hours.
• 1. Thawing media and outgrowth media was mixed at a 1:1 ratio. • 2. After post-thaw recovery, embryos were washed twice in adaptation media (1:1 ratio of thawing media (e.g. embryo handling media and outgrowth media (e.g. DMEM))) before being put in the adaptation drop in the Dish #1 (FIG. 10). • 4. After 1 hour of adaptation, embryos were then washed four times by transferring to washing drops (outgrowth media) in the Dish #2. • 5. Embryos were then moved to the outgrowth media (DMEM) for plating. • 6. Adapted embryos were then plated into LbL coated micro drop.
FBS (10091, Gibco™), Knock-out Serum Replacement (10828-10, Gibco™), Serum Replacement (S0638, Sigma), B27 supplement (17504-044, Gibco™), and N2 supplement (17502-048, Gibco™) were used for this test. Traditional mouse 2iL media (DMEM/F12+1% MEM non-essential amino acid+2 mM Glutamax+100 µM beta-mercaptoethanol+100 IU penicillin/streptomycin+growth factors/inhibitors including 3 µM CHIR99021, 1 μM PD0325901 and 100 ng/ml LIF) was used as a basal medium for the serum tests of 10% FBS and 20% KOSR, and 1×-, 2×-SR groups. t2iLGöY media (1:1 mixture of DMEM/F12 and neurobasal medium+1% MEM non-essential amino acid+2 mM Glutamax+50 μg/ml BSA, fraction V+100 μM beta-mercaptoethanol+100 IU penicillin/streptomycin+growth factors/inhibitors including 1 μM CHIR99021, 1 μM PD0325901, 10 μM Y27632, 2.5 μM Gö6983 and 10 ng/ml LIF) was used for the testing of N2B27 group. […]

## COc1cccc(-c2cn(-c3ccc(CCN4CCC(O)CC4)cc3)c3ncnc(N)c23)c1 [CGP77675]
  effect on derivation efficiency on substitution in t2iLGöY media: negative effect

## COc1ccc2c(c1)c(C1=C(c3c[nH]c4ccccc34)C(=O)NC1=O)cn2CCCN(C)C [Gö6983]
side-by-side with 2i, 2iLFk and NHSM media
  derivation efficiency on addition in t2iLGoY: improved

## O=C(NOC[C@H](O)CO)c1ccc(F)c(F)c1Nc1ccc(I)cc1F [PD0325901]
MEK inhibitor withdrawn, embryo cavity formation
  derivation efficiency when withdrawn from media: decreased

## insulin
Addition of 20 μg/ml to the medium
  hypoblast formation during outgrowth culture: not observed

B1: bovine IL-6: bovine IL-6, a member of the LIF superfamily (protein, UniProt P26892 30-208, looked up)
Interleukin-6: GPLGEDFKNDTTPGRLLLTTPEKTEALIKRMVDKISAMRKEICEKNDECESSKETLAENKLNLPKMEEKDGCFQSGFNQAICLIRTTAGLLEYQIYLDYLQNEYEGNQENVRDLRKNIRTLIQILKQKIADLITTPATNTDLLEKMQSSNEWVKNAKIILILRNLENFLQFSLRAIRMK
  effect on derivation efficiency on substitution in t2iLGöY media: negative effect
